From the supplement of paper PMC10307832

Key:
Assay in all cases: relative viability (nuclei count vs DMSO), 5 days (fraction); higher = more cells survive
[1] = compound: C(C(=O)C(=O)O)Br [Bromopyruvate] + C[C@@H](Oc1cc(-c2cnn(C3CCNCC3)c2)cnc1N)c1c(Cl)ccc(F)c1Cl [Crizotinib] (partner 1 µM)
How it was run: (§1)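 Relative viability divides the nuclei count in treated wells by that in vehicle wells. Lung cancer cell lines were seeded in 1536-well plates, dosed by pin tool the next day, and fixed and stained after 5 days in one step with final 0.05% Triton X-100, 1% formaldehyde and 1 ug/ml Hoechst. Dosing was a single drug or a fixed anchor-drug dose plus five library-drug doses (not always all listed) in √10 steps, and values are medians of duplicate plates imaged at 4×.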

[2] = compound: CC(O)(CS(=O)(=O)c1ccc(F)cc1)C(=O)Nc1ccc(C#N)c(C(F)(F)F)c1 [Bicalutamide] + CC(C)C[C@H](NC(=O)[C@H](Cc1ccccc1)NC(=O)c1cnccn1)B(O)O [Bortezomib] (partner 0.002 µM)
How it was run: as §1

[3] = compound: CC(O)(CS(=O)(=O)c1ccc(F)cc1)C(=O)Nc1ccc(C#N)c(C(F)(F)F)c1 [Bicalutamide] + NC(=O)Nc1cc(-c2cccc(F)c2)sc1C(=O)N[C@H]1CCCNC1 [AZD7762] (partner 0.2 µM)
How it was run: as §1

[4] = compound: C(C(=O)C(=O)O)Br [Bromopyruvate] + CC(C)C[C@H](NC(=O)[C@H](Cc1ccccc1)NC(=O)c1cnccn1)B(O)O [Bortezomib] (partner 0.002 µM)
How it was run: as §1

Cell Line	relative viability ([1]; first compound 1 µM)	relative viability ([1]; first compound 3.162 µM)	relative viability ([1]; first compound 10 µM)	relative viability ([1]; first compound 31.62 µM)	relative viability ([1]; first compound 100 µM)	relative viability ([2]; first compound 0.08 µM)	relative viability ([2]; first compound 0.253 µM)	relative viability ([2]; first compound 0.8 µM)	relative viability ([2]; first compound 2.53 µM)	relative viability ([3]; first compound 0.08 µM)	relative viability ([3]; first compound 0.253 µM)	relative viability ([3]; first compound 0.8 µM)	relative viability ([3]; first compound 2.53 µM)	relative viability ([4]; first compound 1 µM)	relative viability ([4]; first compound 3.162 µM)	relative viability ([4]; first compound 10 µM)	relative viability ([4]; first compound 31.62 µM)	relative viability ([4]; first compound 100 µM)
HCC-78	0.368	0.339	0.37	0.349	0.347	0.498	0.504	0.479	0.556	0.758	0.598	0.696	0.611	0.282	0.615	0.569	0.563	0.495
NCI-H838	0.959	0.881	0.825	0.871	0.854	0.715	0.626	1.28	0.624	0.965	0.958	1.02	0.909	0.915	0.886	0.773	0.786	0.763
NCI-H2126	1.02	1.07	1.04	0.99	0.988	1.12	1.09	1.08	1.06	0.994	0.918	1.01	0.856	1.1	1.05	1.12	1.14	1.15
BEN	0.875	0.935	0.99	0.753	1.01	0.847	0.667	1.18	0.917	0.742	0.563	0.874	0.675	0.897	0.724	0.78	0.836	0.682
LCLC-103H	1.02	1.06	1.05	1.14	1.2	1.1	1.08	1.15	1	0.829	0.791	0.8	0.814	1.05	0.998	1.06	1.08	1.16
EKVX	0.917	1.1	1.08	1.03	0.996	0.994	1.1	1.37	0.952	0.693	0.613	0.797	0.664	1.08	0.993	1.12	1.11	1.1
LXF-289	0.841	0.807	0.786	0.791	0.833	0.98	0.908	1.02	0.963	1.17	1.05	1.11	1.1	1.04	0.966	0.975	1.03	1
ABC-1	1.47	1.13	–	1.05	0.636	0.311	0.232	0.328	0.319	0.828	0.572	1.02	0.772	0.342	0.31	–	0.347	0.332
NCI-H2087	0.9	0.957	0.661	0.78	0.78	0.785	0.825	1.04	0.75	1.29	1.29	1.58	1.26	0.878	0.772	0.772	0.793	0.9
LC-2-ad	0.218	0.47	0.458	0.52	0.469	1.07	1.05	0.997	1.01	0.852	0.838	0.915	0.883	0.924	0.934	1.07	0.977	0.988
NCI-H1355	1.05	1.06	1.18	1.06	0.983	1.21	1.07	1.43	1.1	0.828	0.701	0.923	0.72	1.35	1.16	1.25	1.34	1.16
H3255	0.929	0.987	0.915	0.803	0.973	0.798	0.632	0.783	0.698	0.949	0.791	1.11	0.823	0.877	0.723	0.981	0.719	0.892
NCI-H1734	0.67	0.68	0.803	0.67	0.659	1.01	0.843	1.12	0.915	0.568	0.439	0.645	0.571	0.984	0.89	1.11	0.97	1.09
HOP-62	0.923	0.876	–	0.952	0.65	0.683	0.527	0.725	0.92	0.567	0.494	0.848	0.432	0.739	0.832	–	0.547	0.628
LOU-NH91	0.769	0.708	0.712	0.76	0.724	0.53	0.493	0.441	0.523	0.725	0.653	0.793	0.751	0.499	0.499	0.518	0.49	0.472
ChaGo-K-1	1.09	1.14	1.17	1.1	1.17	0.973	1.05	1.17	0.864	0.883	0.792	0.944	0.858	1.08	1.02	1.01	1.07	0.953
NCI-H23	0.386	0.514	0.514	0.494	0.423	0.964	1.03	1.49	0.786	0.315	0.236	0.27	0.2	1.03	0.991	1.25	0.941	0.839

Cell Line	relative viability ([1]; first compound 1 µM)	relative viability ([1]; first compound 3.162 µM)	relative viability ([1]; first compound 10 µM)	relative viability ([1]; first compound 31.62 µM)	relative viability ([1]; first compound 100 µM)	relative viability ([2]; first compound 0.08 µM)	relative viability ([2]; first compound 0.253 µM)	relative viability ([2]; first compound 0.8 µM)	relative viability ([2]; first compound 2.53 µM)	relative viability ([3]; first compound 0.08 µM)	relative viability ([3]; first compound 0.253 µM)	relative viability ([3]; first compound 0.8 µM)	relative viability ([3]; first compound 2.53 µM)	relative viability ([4]; first compound 1 µM)	relative viability ([4]; first compound 3.162 µM)	relative viability ([4]; first compound 10 µM)	relative viability ([4]; first compound 31.62 µM)	relative viability ([4]; first compound 100 µM)
PC-3 [JPC-3]	1.03	1	0.944	1.01	0.983	0.808	0.909	0.908	0.818	0.86	0.815	0.912	0.874	0.796	0.74	0.832	0.785	0.856
NCI-H1437	0.923	0.981	0.914	0.938	0.92	0.493	0.372	0.759	0.455	1.17	1.13	1.15	1.19	0.546	0.458	0.485	0.405	0.626
NCI-H1666	0.993	0.907	0.963	1.18	0.857	0.808	0.802	1	0.949	0.928	0.759	0.873	0.801	0.804	0.847	0.638	0.89	0.819
NCI-H1651	0.876	0.83	0.919	0.847	0.796	0.917	0.864	1.04	0.959	0.513	0.396	0.549	0.436	0.922	0.952	1.04	0.822	0.867
NCI-H1755	0.973	0.797	0.884	0.881	1	0.97	0.892	0.938	0.895	0.382	0.388	0.475	0.365	0.967	0.938	0.994	1.01	1.03
NCI-H727	0.996	0.89	0.844	0.739	0.83	0.884	0.709	0.968	0.626	0.794	0.563	0.54	0.576	1.01	0.984	0.939	0.729	1.01
HARA	1.05	1.03	0.983	0.991	1.06	1.15	1.02	1.14	1.22	0.382	–	0.368	0.262	1.11	1.13	1.13	1.17	1.15
NCI-H647	1.05	1.18	1.25	1.16	1.1	0.973	0.96	1.4	0.903	0.512	0.397	0.549	0.321	0.93	1.01	1	1.18	0.961
NCI-H2347	0.753	0.602	0.951	0.595	0.684	1.21	0.989	1.4	0.903	0.797	0.753	0.753	0.73	0.862	1.19	0.893	0.723	1.08
LCLC-97TM1	–	–	0.377	0.427	0.186	0.726	0.543	0.635	0.461	0.388	0.186	0.225	0.232	0.957	0.625	0.735	0.573	0.586
EPLC-272H	0.773	0.996	0.999	0.92	0.911	0.873	0.666	0.904	0.894	0.155	0.297	0.215	0.239	0.844	0.952	1.03	0.862	1.08
NCI-H1915	0.836	0.862	0.885	0.923	0.878	0.962	0.944	1.11	0.909	0.721	0.616	0.712	0.682	1	1.02	1.01	0.929	0.975
NCI-H3122	0.252	0.263	0.304	0.289	0.248	1.03	1.03	0.988	1.03	0.98	1	1.05	1.01	1.02	1.01	1.07	0.971	1.02
NCI-H441	0.884	0.739	0.661	0.82	0.337	0.566	–	0.531	0.398	1.06	1.08	1.13	1.16	0.37	0.549	0.481	0.548	0.459
PC-14	0.991	0.868	0.826	0.966	0.997	0.923	0.974	0.827	0.89	0.314	0.329	0.443	0.353	0.958	0.873	0.883	1	0.912
CAL-12T	0.663	0.663	0.743	0.48	0.505	0.942	0.858	1.12	0.768	0.729	0.655	0.703	0.68	1.04	1.08	0.904	0.977	0.934
